Measured values: the supplement of paper PMC10307832

What was measured:
Test in all cases: relative viability (nuclei count vs DMSO), 5 days (fraction); higher = more cells survive
[1] = compound: COc1cc2nccc(Oc3ccc(NC(=O)C4(C(=O)Nc5ccc(F)cc5)CC4)cc3)c2cc1OC [Cabozantinib] + CS(=O)(=O)N1CCN(Cc2cc3nc(-c4cccc5[nH]ncc45)nc(N4CCOCC4)c3s2)CC1 [Pictilisib] (partner 1 µM)
In short: (§1)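 Relative viability divides the nuclei count in treated wells by that in vehicle wells. Lung cancer cell lines were seeded in 1536-well plates, dosed by pin tool the next day, and fixed and stained after 5 days in one step with final 0.05% Triton X-100, 1% formaldehyde and 1 ug/ml Hoechst. Dosing was a single drug or a fixed anchor-drug dose plus five library-drug doses (not always all listed) in √10 steps, and values are medians of duplicate plates imaged at 4×.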

[2] = compound: C1=CC(=CC=C1NC(=S)NNC2=C(C=C(C=C2[N+](=O)[O-])C(F)(F)F)[N+](=O)[O-])F [Kobe2602] + CC(=O)Nc1cccc(-n2c(=O)n(C3CC3)c(=O)c3c(Nc4ccc(I)cc4F)n(C)c(=O)c(C)c32)c1 [Trametinib] (partner 0.02 µM)
In short: as §1

[3] = compound: COc1cc2nccc(Oc3ccc(NC(=O)C4(C(=O)Nc5ccc(F)cc5)CC4)cc3)c2cc1OC [Cabozantinib] + O=C(c1cc(Cc2n[nH]c(=O)c3ccccc23)ccc1F)N1CCN(C(=O)C2CC2)CC1 [Olaparib] (partner 8 µM)
In short: as §1

[4] = compound: C1=CC(=CC=C1NC(=S)NNC2=C(C=C(C=C2[N+](=O)[O-])C(F)(F)F)[N+](=O)[O-])F [Kobe2602] + C[C@@H](Oc1cc(-c2cnn(C3CCNCC3)c2)cnc1N)c1c(Cl)ccc(F)c1Cl [Crizotinib] (partner 1 µM)
In short: as §1

Cell Line	relative viability ([1]; first compound 0.02 µM)	relative viability ([1]; first compound 0.06325 µM)	relative viability ([1]; first compound 0.2 µM)	relative viability ([1]; first compound 0.6325 µM)	relative viability ([1]; first compound 2 µM)	relative viability ([2]; first compound 0.2 µM)	relative viability ([2]; first compound 0.6325 µM)	relative viability ([2]; first compound 2 µM)	relative viability ([2]; first compound 6.325 µM)	relative viability ([2]; first compound 20 µM)	relative viability ([3]; first compound 0.02 µM)	relative viability ([3]; first compound 0.06325 µM)	relative viability ([3]; first compound 0.2 µM)	relative viability ([3]; first compound 0.6325 µM)	relative viability ([3]; first compound 2 µM)	relative viability ([4]; first compound 0.2 µM)	relative viability ([4]; first compound 0.6325 µM)	relative viability ([4]; first compound 2 µM)	relative viability ([4]; first compound 6.325 µM)	relative viability ([4]; first compound 20 µM)
COR-L23	0.487	0.831	0.789	0.74	0.691	0.569	0.587	0.575	0.549	0.679	0.366	0.399	0.39	0.37	0.351	0.656	0.573	0.647	0.745	0.7
NCI-H2009	0.979	0.882	0.882	0.754	0.959	0.297	0.373	0.332	0.305	0.274	0.718	0.71	0.703	0.712	0.762	1.02	1.03	1.01	1.05	1.03
NCI-H322M	0.443	0.548		0.572	0.526	0.555	0.495	0.5	0.467	0.521	0.831	0.902	0.695	0.781	0.675	0.81	0.95	0.995	0.893	0.867
NCI-H2228	0.539	0.544	0.551	0.455	0.331	0.645	0.612	0.41	0.461	0.742	0.769	0.924	0.742	0.602	0.573	0.484	0.504	0.441	0.494	0.585
NCI-H358	0.318	0.35	0.386	0.387	0.373	0.138	0.15	0.135	0.16	0.141	0.708	0.625	0.565	0.529	0.591	0.598	0.597	0.581	0.746	0.652
LK-2		0.632	0.565	0.625	0.588	0.839	0.856	0.744	0.631	0.852	0.57	0.791	0.815	0.697	0.667	0.248	0.273	0.231	0.271	0.257
NCI-H1755	0.445	0.534	0.383	0.358	0.309	0.825	0.728	0.779	0.766	0.726	0.868	0.898	0.872	0.785	0.79	0.842	0.851	0.821	0.83	0.884
A-427	0.657	0.785	0.638	0.773	0.744	0.804	0.745	0.793	0.739	0.742	0.715	0.709	0.714	0.761	0.704	0.898	0.903	0.843	1	1.01
PC-3 [JPC-3]	0.723	0.926		0.806	0.774	0.69	0.699	0.7	0.683	0.668	1.23	1.31		1.2	1.14	0.933	1.02	0.946	0.925	0.974
LOU-NH91	0.494	0.541	0.476	0.485	0.513	0.763	0.793	0.739	0.793	0.821	0.96	0.984	0.681	0.903	0.925	0.736	0.763	0.745	0.707	0.77
BEN	0.58	0.632	0.576	0.601	0.458	1.01	1.16	1.17	1.06	1.14	1.16	1.18	1.23	1.01	0.764	0.948	0.727	0.894	0.843	0.819
NCI-H2085	0.468	0.456	0.443	0.465	0.344	0.614	0.516	0.491	0.409	0.514	0.842	0.805	0.786	0.781	0.776	0.843	0.823	0.904	0.855	0.723
LC-2-ad	0.31	0.402	0.279	0.319	0.177	0.931	0.895	0.849	0.936	0.89	0.754	0.735	0.847	0.829	0.691	0.433	0.465	0.464	0.547	0.494
NCI-H727	0.228	0.493	0.302	0.357	0.36	0.417	0.408	0.355		0.371	0.769	0.828	0.632	0.907	0.606	0.767	0.69	0.776	0.64	0.865
NCI-H1792	0.334	0.318	0.301	0.293	0.268	0.445	0.446	0.401	0.564	0.366		0.56	0.419	0.317	0.373	0.965	0.928	0.985	0.726	1.05
EPLC-272H	0.192	0.262	0.323	0.356	0.279	0.263	0.288	0.304	0.278	0.299	0.906	0.787	0.648	0.884	0.597	0.772	0.905	0.967	0.899	0.914
